Values quoted from earlier work as cited in US20030152643A1, “Combination of an alpha-adrenergic antagonist and a nitrogen oxide donor for treating female sexual dysfunctions” (priority 1998, published 2003).

System: erectile dysfunctions
Settings: administration in men; Zorgniotti and Lizza 1994

N=C(N)NCCC[C@H](N)C(=O)O [L-arginine]
effect on erectile dysfunctions in men: favorable effect on erectile dysfunctions in certain cases
